According to PubChem BioAssay AID2060493 (Molecular Pharmacology Branch, DTP, NCI, 2025):

Test system: 616215-338-R-J1-PDC tumor spheroids, viability
Assay: Anticancer human tumor 616215-338-R-J1-PDC patient-derived colon adenocarcinoma cell line growth inhibition [GQUAD]
Conditions: spheroids with HUVEC and MSC; for IC50: curve of first compound; for viability, T/C: stronger effect = lower value
Summary of the method: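 Multi-cell-type spheroids of tumor cells with HUVEC and mesenchymal stem cells, treated with drug combinations. Concentrations descend in half-log steps from near clinical Cmax, or from 10 microM where Cmax is unknown; viability read-out.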

[1] = second compound 0.0316 µM, first compound 0.0316 µM
[2] = second compound 0.0316 µM, first compound 0.1 µM
[3] = second compound 0.0316 µM, first compound 0.316 µM
[4] = second compound 0.0316 µM, first compound 1 µM
[5] = second compound 0.0316 µM, first compound 3.16 µM
[6] = second compound 0.0316 µM, first compound 10 µM
[7] = second compound 0.1 µM, first compound 0.0316 µM
[8] = second compound 0.1 µM, first compound 0.1 µM
[9] = second compound 0.1 µM, first compound 0.316 µM
[10] = second compound 0.1 µM, first compound 1 µM
[11] = second compound 0.1 µM, first compound 3.16 µM
[12] = second compound 0.1 µM, first compound 10 µM
[13] = second compound 0.316 µM, first compound 0.0316 µM
[14] = second compound 0.316 µM, first compound 0.1 µM
[15] = second compound 0.316 µM, first compound 0.316 µM
[16] = second compound 0.316 µM, first compound 1 µM
[17] = second compound 0.316 µM, first compound 3.16 µM
[18] = second compound 0.316 µM, first compound 10 µM
[19] = second compound 1 µM, first compound 0.0316 µM
[20] = second compound 1 µM, first compound 0.1 µM
[21] = second compound 1 µM, first compound 0.316 µM
[22] = second compound 1 µM, first compound 1 µM
[23] = second compound 1 µM, first compound 3.16 µM
[24] = second compound 1 µM, first compound 10 µM
[25] = second compound 3.16 µM, first compound 0.0316 µM
[26] = second compound 3.16 µM, first compound 0.1 µM
[27] = second compound 3.16 µM, first compound 0.316 µM
[28] = second compound 3.16 µM, first compound 1 µM
[29] = second compound 3.16 µM, first compound 3.16 µM
[30] = second compound 3.16 µM, first compound 10 µM
[31] = second compound 10 µM, first compound 0.0316 µM
[32] = second compound 10 µM, first compound 0.1 µM
[33] = second compound 10 µM, first compound 0.316 µM
[34] = second compound 10 µM, first compound 1 µM
[35] = second compound 10 µM, first compound 3.16 µM
[36] = second compound 10 µM, first compound 10 µM
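Note: spheroids exposed to agents for 7 days before readout.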
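Throughout, for viability, T/C: percent viability relative to DMSO vehicle control wells taken as 100%.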

`CC1COCCN1c1cc(C2(S(C)(=N)=O)CC2)nc(-c2ccnc3[nH]ccc23)n1` (stereo unspecified) + Cc1cnc(CNC(=O)c2c(=O)c3ccc(N4CCCN(C)CC4)nc3n3c2sc2ccccc23)cn1 was tested, and the IC50 (second compound 0.0316 µM) was 2380 nM, the IC50 (second compound 0.1 µM) was 1070 nM and the IC50 (second compound 0.316 µM) was 45.3 nM. The IC50 (second compound 1 µM) was less than 31.6 nM, the IC50 (second compound 3.16 µM) was less than 31.6 nM and the IC50 (second compound 10 µM) was less than 31.6 nM. It also gave a viability, T/C [1] of 97.6%, a viability, T/C [2] of 97.4% and a viability, T/C [3] of 94.5%. For the same compound, the viability, T/C [4] was 83.7%, the viability, T/C [5] was 38.8% and the viability, T/C [6] was 31.4%. It also gave a viability, T/C [7] of 72.5%, a viability, T/C [8] of 73.4% and a viability, T/C [9] of 70%. The viability, T/C [10] was 51.2%, the viability, T/C [11] was 33.6% and the viability, T/C [12] was 32.6%. The viability, T/C [13] was 53.5%, the viability, T/C [14] was 43.2% and the viability, T/C [15] was 44.1%. The viability, T/C [16] was 42.1%, the viability, T/C [17] was 33.7% and the viability, T/C [18] was 28.2%. For the same compound, the viability, T/C [19] was 38.3%, the viability, T/C [20] was 40.9% and the viability, T/C [21] was 32%. It also gave a viability, T/C [22] of 26.7%, a viability, T/C [23] of 27.7% and a viability, T/C [24] of 21.5%. It also gave a viability, T/C [25] of 21.9%, a viability, T/C [26] of 30.2% and a viability, T/C [27] of 31.6%. The viability, T/C [28] was 30.2%, the viability, T/C [29] was 40.4% and the viability, T/C [30] was 30%. The viability, T/C [31] was 25.1%, the viability, T/C [32] was 27.1% and the viability, T/C [33] was 29.9%. For the same compound, the viability, T/C [34] was 22.4%, the viability, T/C [35] was 19.6% and the viability, T/C [36] was 17.5%.

Compound `COc1ccc([C@@H](O)c2cc(-c3ncnc4cc(N5CCOCC5)ccc34)c(F)cc2Cl)nn1` + Cc1cnc(CNC(=O)c2c(=O)c3ccc(N4CCCN(C)CC4)nc3n3c2sc2ccccc23)cn1 has an IC50 (second compound 0.0316 µM) of 798 nM, an IC50 (second compound 0.1 µM) of 770 nM and an IC50 (second compound 0.316 µM) of less than 31.6 nM. It also gave an IC50 (second compound 1 µM) of less than 31.6 nM, an IC50 (second compound 3.16 µM) of less than 31.6 nM and an IC50 (second compound 10 µM) of less than 31.6 nM. For the same compound, the viability, T/C [1] was 102%, the viability, T/C [2] was 92.4% and the viability, T/C [3] was 93.9%. It also gave a viability, T/C [4] of 39.3%, a viability, T/C [5] of 30.1% and a viability, T/C [6] of 25.3%. It also gave a viability, T/C [7] of 59.2%, a viability, T/C [8] of 74.2% and a viability, T/C [9] of 61.2%. It also gave a viability, T/C [10] of 42.2%, a viability, T/C [11] of 39.9% and a viability, T/C [12] of 24.6%. For the same compound, the viability, T/C [13] was 43.6%, the viability, T/C [14] was 46.8% and the viability, T/C [15] was 43%. The viability, T/C [16] was 27.9%, the viability, T/C [17] was 26.4% and the viability, T/C [18] was 14.6%. The viability, T/C [19] was 25.3%, the viability, T/C [20] was 28.6% and the viability, T/C [21] was 30.5%. It also gave a viability, T/C [22] of 21.8%, a viability, T/C [23] of 22.8% and a viability, T/C [24] of 7.7%. For the same compound, the viability, T/C [25] was 23.1%, the viability, T/C [26] was 26.9% and the viability, T/C [27] was 30.1%. The viability, T/C [28] was 25%, the viability, T/C [29] was 15.9% and the viability, T/C [30] was 3.64%. For the same compound, the viability, T/C [31] was 33.8%, the viability, T/C [32] was 25.8% and the viability, T/C [33] was 32.3%. The viability, T/C [34] was 20%, the viability, T/C [35] was 15.4% and the viability, T/C [36] was 3.43%.

In the case of `O=C(c1cc(Cc2n[nH]c(=O)c3ccccc23)ccc1F)N1CCN(C(=O)C2CC2)CC1` + Cc1cnc(CNC(=O)c2c(=O)c3ccc(N4CCCN(C)CC4)nc3n3c2sc2ccccc23)cn1, the IC50 (second compound 0.0316 µM) is reported as greater than 10000 nM, the IC50 (second compound 0.1 µM) is reported as greater than 10000 nM and the IC50 (second compound 0.316 µM) is reported as less than 31.6 nM. It also gave an IC50 (second compound 1 µM) of less than 31.6 nM, an IC50 (second compound 3.16 µM) of less than 31.6 nM and an IC50 (second compound 10 µM) of less than 31.6 nM. For the same compound, the viability, T/C [1] was 97.3%, the viability, T/C [2] was 103% and the viability, T/C [3] was 107%. It also gave a viability, T/C [4] of 87.9%, a viability, T/C [5] of 84.3% and a viability, T/C [6] of 68.7%. For the same compound, the viability, T/C [7] was 68.5%, the viability, T/C [8] was 69.3% and the viability, T/C [9] was 74.4%. For the same compound, the viability, T/C [10] was 64.3%, the viability, T/C [11] was 53.9% and the viability, T/C [12] was 51.5%. The viability, T/C [13] was 43.6%, the viability, T/C [14] was 39.4% and the viability, T/C [15] was 46.4%. For the same compound, the viability, T/C [16] was 52.2%, the viability, T/C [17] was 36.1% and the viability, T/C [18] was 35.1%. The viability, T/C [19] was 42.8%, the viability, T/C [20] was 28.7% and the viability, T/C [21] was 30.4%. For the same compound, the viability, T/C [22] was 54.8%, the viability, T/C [23] was 38.5% and the viability, T/C [24] was 26.7%. The viability, T/C [25] was 28.1%, the viability, T/C [26] was 26.6% and the viability, T/C [27] was 23.2%. For the same compound, the viability, T/C [28] was 28.7%, the viability, T/C [29] was 41.4% and the viability, T/C [30] was 30.3%. The viability, T/C [31] was 36.6%, the viability, T/C [32] was 28.7% and the viability, T/C [33] was 25.2%. It also gave a viability, T/C [34] of 22.7%, a viability, T/C [35] of 44.1% and a viability, T/C [36] of 24.3%.
